In patent US9326961B2, “Diet and methods for improving learning capacity, mood and behavior in mammals” (COAPE, LTD, priority 2010, dated 2016):

Tests used:
horse = details: horses, cited from earlier work
dogs (slow learners) = assay: Discrimination learning, T-maze test (Test B) after three weeks on assigned diet; assay type: in vivo, dog; details: diet supplementation, compared with adding tryptophan to the diet
Procedure: To determine the effect of diet on learning capability, 81 dogs of various ages, types and sex were recruited from dog training clubs and colleagues of the experimenter; however, one dog had to be withdrawn from the study. Inclusion into the study required that the dogs were not receiving any veterinary treatment or medication for behavioral problems. All dogs were in good health, having been fully vaccinated and wormed. Dogs were tested in simple tests that required no lengthy training time. […] Each dog's baseline learning capability was established on its performance in Test A. It was determined that 15 of the dogs were fast learners, while 65 were slow learners.
Each owner was supplied an information sheet advising how to introduce the new diet over a period of days, to ensure that no digestion problems occurred from a sudden change of food. The dogs remained on the assigned diet for a period of three weeks and their learning capability was re-evaluated according to their performance in Test B. Latency to learn the task was used as a measure of learning capability and specific displacement activities were monitored to evaluate the effect on various behavior patterns. […]
The dogs' latency to learn was measured in the time it took them, to achieve success, measured as 100% of correct responses in five consecutive trials. […]

| SMILES | toxicity (horse; high doses given orally, presumably toxic hindgut metabolite) | effect on endurance capacity (horse; high doses) | behavioral effect (horse; low doses) | enhancing serotonin levels in the brain, as measured by improved behavior and learning ability (dogs (slow learners)) |
| --- | --- | --- | --- | --- |
| N[C@@H](Cc1c[nH]c2ccccc12)C(=O)O [Tryptophan] | may cause hemolytic anemia | reduce endurance capacity | mild excitement |  |
| CC(C)C[C@H](N)C(=O)O [leucine] |  |  |  | as effective in enhancing serotonin levels in the brain as adding tryptophan to the diet |
